In US10196357B2, “Biaryl compositions and methods for modulating a kinase cascade” (Athenex, Inc., priority 2007, dated 2019):
pIC50: −log10 of the molar value. Values joined by “and” are separate entries in the source; they are usually repeats but may differ in a detail not shown here. Equal values may be shown once. Read-outs that look alike come from different tables or passages of the source.

Legend:
[1] = body weight in GL261 glioma survival study; type: in vivo; conditions: 5 mg/kg, C57BL/6 mice
Description: A brain tumor mouse xenograft study was conducted comparing KX2-361 and KX2-391 (KXO1) to Temodar®. The studies were conducted in C57BL/6 mice. GL261 glioma cells (1×10^5 in 5 μl DMEM) were implanted intracranial coordinates: bregma, lateral 2.0 mm, anterior 1.2 mm, 3.0 mm depth dura. Treatment was initiated 3 days post implantation. The groups were as follows (all doses in 100 μl H2O):
FIGS. 49A-E show the weight gain in each of the C57BL/6 mice in the different treatment groups. The average weight at endpoint for each of the treatment groups is shown below in Table 30. FIG. 50 is a graph showing the average weights over a 40-day period for each of the treatment groups.

L3.6pl cells = experiment: growth inhibition (BrdU), L3.6pl; type: cell-based, human; conditions: Homo sapiens, L3.6pl, L3.6pl (Pancreas) cells, single agent
From the text: L3.6pl cells are previously described in Trevino et al. Am J Pathol.

[2] = tested on: PDGF receptor tyrosine kinase Y572/574; experiment: PDGF receptor autophosphorylation in cells; type: cell-based; conditions: c-Src527F/NIH-3T3 cells
Description: HT29 (colon cancer) and c-Src527F/NIH-3T3 (Src transformed) cell lines were treated with KX2-391 or with AstraZeneca's ATP competitive Src inhibitor AZ28. AZ28 serves as a positive comparator to show what a validated Src inhibitor should do in these assays. After treatment with compound, cells were lysed, subjected to PAGE and probed with a battery of antibodies. […] In addition, off-target protein phosphorylation was also investigated. Further, induction of apoptosis was evaluated via Caspase 3 cleavage. Multiple doses of each compound were tested because the trends in response to increasing drug concentration are the most reliable indicator of activity.
The same range of multiples of the GI50 for AZ28 in these two cell lines was run as a comparison.
This is thought not to be a direct Src substrate in cells.

isolated Src = isolated Src (Homo sapiens, UniProt P12931); experiment: titration against isolated Src; type: biochemical; conditions: titration data
c-Src 3T3 cells = experiment: BrdU cell growth inhibition, c-Src 3T3; type: cell-based, mouse; conditions: Mus musculus; c-Src 3T3 (c-Src527F/NIH3T3) cells; read-out: GI50
How it was run: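 c-Src 3T3 cells on poly-D-lysine plates in DMEM with 2% FBS, L-glutamine, pyruvate and 10 mM HEPES. Compounds came from 20 mM DMSO stocks diluted in DMEM/10% FBS. Proliferation was read by colorimetric BrdU-incorporation ELISA, and GI50 was extrapolated from growth relative to time-zero and untreated controls.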

[3] = plasma exposure after oral administration; type: in vivo, male CD-1 mice; conditions: for concentration at 0.5 h / concentration at 1 h / concentration at 2 h / concentration at 5 h / AUC(0-t) / Cmax / Tmax: male, CD-1, mouse; for concentration at 0.5 h / concentration at 1 h / concentration at 2 h / concentration at 5 h: plasma, po; for AUC(0-t) / Cmax / Tmax: Plasma
Description: Plasma concentrations were measured in mice after oral administration. All doses were formulated in purified water. Four groups of male CD-1 mice were dosed after an overnight fast and fed 4 hours post-dose. Dosing was as follows:
Protein was precipitated with 0.25 mL acetonitrile for plasma, 0.25 mL for brain. After centrifugation, supernatant was directly injected into an LC/MS system. The limit of quantitation was 1 ng/mL using a 50 μL aliquot for plasma and a 50 μL, aliquot for brain. The standard curve was 1 to 1,000 ng/mL for both plasma and brain. HPLC conditions were as follows:
HPLC System: Shimadzu SCL-10 System
• Analytical Column: Aquasil C18 5 μm 100×2 mm column. • Column Temperature: Ambient temperature • Autosampler Temperature: Ambient temperature • Mobile Phase A) 10 mM Ammonium formate in water (pH 4). • B) Acetonitrile. • Flow Rate: 0.6 mL/min • Injection Volume: 2 μL • Gradient:
• Mass Spectrometry Conditions were as follows: • Instrument: ABI Sciex API 4000 • Mode: ESI+ • Experiment: MRM (multiple reaction monitoring) • Transitions: KX2-391: m/z 432.4→114.2 (Rt=3.11 minute) • KX2-361: m/z 406.1→253.2 (Rt=3.33 minute)

HT29 cell line = experiment: BrdU cell growth inhibition, HT29; type: cell-based, human; conditions: Homo sapiens, read-out: GI50
How it was run: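 HT29 colon carcinoma cells treated with compounds diluted from 20 mM DMSO stocks into DMEM/10% FBS. Proliferation read as colorimetric BrdU incorporation ELISA; GI calculated relative to untreated cells at time 0 and control cells at day n, with GI50 extrapolated. Net cell loss below time-0 level scored as cytotoxicity.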

Chain of isolated Src (P12931 whole entry): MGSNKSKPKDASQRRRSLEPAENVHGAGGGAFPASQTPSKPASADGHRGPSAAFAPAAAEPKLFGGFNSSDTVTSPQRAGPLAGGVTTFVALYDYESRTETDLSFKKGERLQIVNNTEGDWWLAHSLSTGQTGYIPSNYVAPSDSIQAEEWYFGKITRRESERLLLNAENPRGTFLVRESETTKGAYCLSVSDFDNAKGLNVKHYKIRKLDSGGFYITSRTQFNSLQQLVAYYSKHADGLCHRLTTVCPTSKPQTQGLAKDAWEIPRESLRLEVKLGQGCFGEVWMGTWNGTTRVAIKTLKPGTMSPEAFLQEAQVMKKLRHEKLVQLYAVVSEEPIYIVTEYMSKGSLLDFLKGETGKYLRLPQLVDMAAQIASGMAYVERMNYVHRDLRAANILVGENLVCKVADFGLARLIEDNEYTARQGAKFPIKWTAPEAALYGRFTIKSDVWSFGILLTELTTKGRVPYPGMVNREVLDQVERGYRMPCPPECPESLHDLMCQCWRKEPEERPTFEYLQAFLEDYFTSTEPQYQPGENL

For `O=C(Cc1ccc(-c2ccc(OCCN3CCOCC3)cc2)cn1)NCc1ccccc1` [KX2-391], the “Average weight at endpoint” value [1] was 14.3 g, the GI50 (L3.6pl cells) was 53 nM and the “PDGF receptor Y572/574 autophosphorylation” value [2] was “Some effect”. It also gave a pIC50 (isolated Src) of 4.34, a GI50 (c-Src 3T3 cells) of 13 nM and a concentration at 0.5 h ([3]; 10 mg/kg, single PO dose 10 mg/kg (Group 1), 0.5 hr, read-out: Plasma Concentrations, Group A, B, C) of 779 ng/mL. It also gave a concentration at 0.5 h ([3]; 10 mg/kg, single PO dose 10 mg/kg (Group 1), 0.5 hr, read-out: Plasma Concentrations, Mean) of 871 ng/mL, a concentration at 1 h ([3]; 10 mg/kg, single PO dose 10 mg/kg (Group 1), 1 hr, read-out: Plasma Concentrations, Mean) of 363 ng/mL and a concentration at 2 h ([3]; 10 mg/kg, single PO dose 10 mg/kg (Group 1), 2 hr, read-out: Plasma Concentrations, Group A, B, C) of 328 ng/mL. For the same compound, the concentration at 2 h ([3]; 10 mg/kg, single PO dose 10 mg/kg (Group 1), 2 hr, read-out: Plasma Concentrations, Mean) was 287 ng/mL, the concentration at 5 h ([3]; 10 mg/kg, single PO dose 10 mg/kg (Group 1), 5 hr, read-out: Plasma Concentrations, Group A, B, C) was 133 ng/mL and the concentration at 5 h ([3]; 10 mg/kg, single PO dose 10 mg/kg (Group 1), 5 hr, read-out: Plasma Concentrations, Mean) was 147 ng/mL. It also gave a concentration at 0.5 h ([3]; 50 mg/kg, single PO dose 50 mg/kg (Group 2), 0.5 hr, read-out: Plasma Concentrations, Group A, B, C) of 8510 ng/mL, a concentration at 0.5 h ([3]; 50 mg/kg, single PO dose 50 mg/kg (Group 2), 0.5 hr, read-out: Plasma Concentrations, Mean) of 9720 ng/mL and a concentration at 1 h ([3]; 50 mg/kg, single PO dose 50 mg/kg (Group 2), 1 hr, read-out: Plasma Concentrations, Group A, B, C) of 2370 ng/mL. The concentration at 1 h ([3]; 50 mg/kg, single PO dose 50 mg/kg (Group 2), 1 hr, read-out: Plasma Concentrations, Mean) was 2060 ng/mL, the concentration at 2 h ([3]; 50 mg/kg, single PO dose 50 mg/kg (Group 2), 2 hr, read-out: Plasma Concentrations, Group A, B, C) was 1150 ng/mL and the concentration at 2 h ([3]; 50 mg/kg, single PO dose 50 mg/kg (Group 2), 2 hr, read-out: Plasma Concentrations, Mean) was 1510 ng/mL. For the same compound, the concentration at 5 h ([3]; 50 mg/kg, single PO dose 50 mg/kg (Group 2), 5 hr, read-out: Plasma Concentrations, Mean) was 922 ng/mL, the AUC(0-t) ([3]; single oral dose 10 mg/kg) was 1500 ng·h/mL and the Cmax ([3]; single oral dose 10 mg/kg) was 871 ng/mL. For the same compound, the Tmax ([3]; single oral dose 10 mg/kg) was 30 min, the AUC(0-t) ([3]; single oral dose 50 mg/kg) was 10800 ng·h/mL and the Cmax ([3]; single oral dose 50 mg/kg) was 9720 ng/mL. For the same compound, the Tmax ([3]; single oral dose 50 mg/kg) was 30 min, the “Plasma Concentrations, Group A, B, C” value ([3]; single PO dose 10 mg/kg (Group 1), 0.5 hr, 10 mg/kg) was 1096.62 ng/mL and 737.37 ng/mL and the “Plasma Concentrations, Group A, B, C” value ([3]; single PO dose 10 mg/kg (Group 1), 2 hr, 10 mg/kg) was 271.89 ng/mL and 261.57 ng/mL. The “Plasma Concentrations, Group A, B, C” value ([3]; single PO dose 10 mg/kg (Group 1), 5 hr, 10 mg/kg) was 147.74 ng/mL and 160.62 ng/mL, the “Plasma Concentrations, Group A, B, C” value ([3]; single PO dose 50 mg/kg (Group 2), 0.5 hr, 50 mg/kg) was 8334.53 ng/mL and 12315.31 ng/mL and the “Plasma Concentrations, Group A, B, C” value ([3]; single PO dose 50 mg/kg (Group 2), 1 hr, 50 mg/kg) was 2442.20 ng/mL and 1365.56 ng/mL. The “Plasma Concentrations, Group A, B, C” value ([3]; single PO dose 50 mg/kg (Group 2), 2 hr, 50 mg/kg) was 1546.09 ng/mL and 1850.18 ng/mL, the GI50 (HT29 cell line; HT-29, HT29 (Colon) cells) was 23 nM and the GI50 (HT29 cell line; HT-29, HT-29, BrdU, T=72) was 15.4 nM.
